Laboratory results published in ChEMBL document CHEMBL4373746, “Structural attributes influencing unbound tissue distribution” (Eur J Med Chem, 2020).

Key:
[1] = Fraction unbound in Wistar Han rat brain at 2 uM incubated for 6 hrs by equilibrium dialysis method
[2] = Fraction unbound in Wistar Han rat heart at 2 uM incubated for 6 hrs by equilibrium dialysis method
[3] = Drug concentration in total skeletal muscle in Wistar Han rat at 1 to 2 mg/kg, iv infused for 10 to 20 hrs by LC-MS/MS analysis; settings: in vivo
[4] = Total plasma concentration in Wistar Han rat at 1 to 2 mg/kg, iv infused for 10 to 20 hrs by LC-MS/MS analysis; settings: in vivo
[5] = Drug concentration in total white adipose tissue in Wistar Han rat at 1 to 2 mg/kg, iv infused for 10 to 20 hrs by LC-MS/MS analysis; settings: in vivo
[6] = Unbound tissue partition coefficient, ratio of drug level in brain to plasma in Wistar Han rat at 1 to 2 mg/kg, iv infused for 10 to 20 hrs by LC-MS/MS analysis; settings: brain/plasma
[7] = Fraction unbound in Wistar Han rat plasma at 2 uM incubated for 6 hrs by equilibrium dialysis method
[8] = Apparent permeability of the compound across dog RRCK cells by MDCK-LE assay
[9] = Unbound tissue partition coefficient, ratio of drug level in adipose to plasma in Wistar Han rat at 1 to 2 mg/kg, iv infused for 10 to 20 hrs by LC-MS/MS analysis; settings: adipose/plasma
[10] = Drug concentration in total liver in Wistar Han rat at 1 to 2 mg/kg, iv infused for 10 to 20 hrs by LC-MS/MS analysis; settings: in vivo
[11] = Drug concentration in total brain in Wistar Han rat at 1 to 2 mg/kg, iv infused for 10 to 20 hrs by LC-MS/MS analysis; settings: in vivo
[12] = Fraction unbound in Wistar Han rat skeletal muscle at 2 uM incubated for 6 hrs by equilibrium dialysis method
[13] = Unbound tissue partition coefficient, ratio of drug level in skeletal muscle to plasma in Wistar Han rat at 1 to 2 mg/kg, iv infused for 10 to 20 hrs by LC-MS/MS analysis; settings: skeletal muscle/plasma
[14] = Fraction unbound in Wistar Han rat white adipose tissue at 2 uM incubated for 6 hrs by equilibrium dialysis method
[15] = Fraction unbound in Wistar Han rat liver at 2 uM incubated for 6 hrs by equilibrium dialysis method
[16] = Unbound tissue partition coefficient, ratio of drug level in heart to plasma in Wistar Han rat at 1 to 2 mg/kg, iv infused for 10 to 20 hrs by LC-MS/MS analysis; settings: heart/plasma
[17] = Unbound tissue partition coefficient, ratio of drug level in liver to plasma in Wistar Han rat at 1 to 2 mg/kg, iv infused for 10 to 20 hrs by LC-MS/MS analysis; settings: liver/plasma
[18] = Drug concentration in total heart in Wistar Han rat at 1 to 2 mg/kg, iv infused for 10 to 20 hrs by LC-MS/MS analysis; settings: in vivo

Row | fraction unbound at 6 h, 2 µM [1] | fraction unbound at 6 h, 2 µM [2] | Ct [3] [ng/mL] | Cp [4] [ng/mL] | Ct [5] [ng/mL] | Kp uu [6] | fraction unbound at 6 h, 2 µM [7] | Papp [8] [×10⁻⁶ cm/s] | Kp uu [9] | Ct [10] [ng/mL] | Ct [11] [ng/mL] | fraction unbound at 6 h, 2 µM [12] | Kp uu [13] | fraction unbound at 6 h, 2 µM [14] | fraction unbound at 6 h, 2 µM [15] | Kp uu [16] | Kp uu [17] | Ct [18] [ng/mL] | Structure (SMILES)
1 | 0.00176 | 0.00108 | 16 | 54 | 4.7 | 0.0025 | 0.0104 | 5.3 | 0.36 | 400 | 1 | 0.00211 | 0.08 | 0.0322 | 0.00258 | 0.19 | 2.2 | 86 | CC(C)(CC1Cc2ccccc2C1)NC[C@@H](O)COc1cc(C2CC3CC2C2C(C(=O)O)C32)ccc1C#N (some centres undefined)
2 | 0.0543 | 0.0941 | 97 | 28 | 79 | 0.013 | 0.362 | 15 | 1.6 | 420 | 2.3 | 0.138 | 1.4 | 0.205 | 0.0749 | 1.8 | 3.3 | 190 | CN(C)C[C@@H](OC(=O)N1Cc2c(NC(=O)C3(C(F)(F)F)CC3)n[nH]c2C1(C)C)c1ccccc1
3 | 0.0113 | 0.016 | 95 | 150 | 110 | 0.35 | 0.012 | 27 | 4.9 | 690 | 39 | 0.0161 | 1.3 | 0.0547 | 0.0158 | 2.3 | 9.8 | 190 | C[C@H]1c2cccc(CCC(C)(C)O)c2C[C@H](CO)N1C(=O)Cc1c(Cl)cccc1Cl
4 | 0.00529 | 0.013 | 97 | 55 | 21 | 0.011 | 0.0219 | 5.5 | 2 | 470 | 2.4 | 0.0154 | 1.3 | 0.113 | 0.0115 | 2.7 | 4.5 | 240 | NC(=O)c1c(-c2ccc(Oc3ccc(Cl)cc3)cc2)nn([C@@H]2CCCN(C(=O)/C=C/CO)C2)c1N
5 | 0.0227 | 0.057 | 170 | 42 | 28 | 0.078 | 0.0995 | 24 | 2.4 | 960 | 14 | 0.0483 | 2 | 0.393 | 0.0394 | 5.3 | 9.4 | 410 | O=C(c1cccc(N2CCNCC2)n1)N1CCC(c2ccccc2F)CC1
6 | 0.00431 | 0.00283 | 150 | 240 | 120 | 0.029 | 0.00962 | 20 | 5.9 | 1000 | 16 | 0.00952 | 0.59 | 0.109 | 0.00991 | 0.68 | 4.3 | 550 | N#Cc1ccc(N2N=C(N3CCC(C(=O)N4CCC(O)CC4)CC3)C[C@H]2C2CCCC2)cc1Cl
7 | 0.0077 | 0.0109 | 89 | 68 | 1000 | 0.1 | 0.0809 | 22 | 0.41 | 150 | 69 | 0.011 | 0.18 | 0.00216 | 0.00864 | 0.43 | 0.24 | 220 | Cc1ccc(NC(=O)c2cc(Oc3ccc(S(C)(=O)=O)cc3)c3c(c2)OC(C)(C)C3)nc1

Second part, the compound before the results:

Row | Structure (SMILES) | fraction unbound at 6 h, 2 µM [1] | fraction unbound at 6 h, 2 µM [2] | Ct [3] [ng/mL] | Cp [4] [ng/mL] | Ct [5] [ng/mL] | Kp uu [6] | fraction unbound at 6 h, 2 µM [7] | Papp [8] [×10⁻⁶ cm/s] | Kp uu [9] | Ct [10] [ng/mL] | Ct [11] [ng/mL] | fraction unbound at 6 h, 2 µM [12] | Kp uu [13] | fraction unbound at 6 h, 2 µM [14] | fraction unbound at 6 h, 2 µM [15] | Kp uu [16] | Kp uu [17] | Ct [18] [ng/mL]
8 | CC1(C)CN(CCC#N)C(=O)[C@@H]1Oc1ccc(C#N)c(C(F)(F)F)c1 | 0.0717 | 0.152 | 110 | 160 | 250 | 0.11 | 0.358 | 40 | 0.81 | 500 | 91 | 0.263 | 0.48 | 0.185 | 0.122 | 0.55 | 1 | 210
9 | CCCC(Oc1ccc(-n2cc3ccccc3n2)cc1)c1ccc(C(=O)NCCC(=O)O)cc1 (centres undefined) | 0.00341 | 0.00543 | 12 | 68 | 0.77 | 0.018 | 0.0034 | 9.9 | 0.024 | 420 | 1.9 | 0.00584 | 0.38 | 0.105 | 0.00607 | 1.8 | 14 | 80
10 | O=C(O)c1c[nH]c2cc(Cl)c(-c3ccc(CC(=O)N4CCOCC4)cc3)cc12 | 0.181 | 0.0746 | 0.89 | 72 | 2 | 0.0018 | 0.00645 | 2.4 | 1.6 | 210 | 0.38 | 0.133 | 0.16 | 0.386 | 0.0789 | 3.4 | 40 | 21
11 | C[C@H]1C[C@H]2CSC(N)=N[C@@]2(c2cc(C#N)ccc2F)CO1 | 0.573 | 0.668 | 240 | 84 | 86 | 2.1 | 0.796 | 29 | 1.4 | 990 | 230 | 0.344 | 1.3 | 1 | 0.548 | 3.9 | 8.5 | 380
12 | Cn1nc(C(=O)NCCN2CCOCC2)cc1-c1cc2ccccc2[nH]1 | 0.0291 | 0.0422 | 42 | 29 | 29 | 0.12 | 0.176 | 33 | 1.1 | 300 | 19 | 0.0664 | 0.57 | 0.189 | 0.0714 | 1.3 | 4.4 | 150
13 | COc1cc2c(cc1Cc1ccccc1)C[C@H](N)C(=O)N2OC(=O)N(C)C | 0.0385 | 0.209 | 32 | 18 | 33 | 0.1 | 0.354 | 38 | 1.1 | 33 | 16 | 0.0886 | 0.46 | 0.214 | 0.147 | 2.5 | 0.74 | 76
